# PubChem BioAssay (NCI)
#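 Dose response: 5 concentrations. Exposure: 48 h. Format: 96-well plates. Endpoint: linear interpolation; highest concentration if not reached. Abbreviation: GI50, concentration required for 50% inhibition of growth. TGI: total growth inhibition.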
# Tests used:
# Assay in all cases: NCI anticancer screen, dose series, 48 h
# [1] = test system: HOP-62 NSCLC
# [2] = test system: T-47D breast
# [3] = test system: NCI-H460 lung
# [4] = test system: NCI-H226 lung
# [5] = test system: A549 NSCLC
# [6] = test system: OVCAR-3 ovarian
# [7] = test system: HCC-2998 colon
# [8] = test system: SK-MEL-5 melanoma
# [9] = test system: MDA-MB-231 breast
Structure (SMILES),GI50 [1] [µM],TGI [1] [µM],GI50 [2] [µM],TGI [2] [µM],GI50 [3] [µM],TGI [3] [µM],GI50 [4] [µM],TGI [4] [µM],GI50 [5] [µM],TGI [5] [µM],GI50 [6] [µM],TGI [6] [µM],GI50 [7] [µM],TGI [7] [µM],GI50 [8] [µM],TGI [8] [µM],TGI [9] [µM],GI50 [9] [µM]
O=C1C(Cl)=C(Nc2cccc(Cl)c2)C(=O)N1Cc1ccccc1,11.2,24.4,33.8,> 100,7.11,27.9,10.5,29.3,16.1,39.9,5.02,17.7,4.59,18.1,6.83,20.3,–,–
CC[C@]12CCCN3CCc4c(n(c5ccccc45)C(=O)C1)[C@@H]32,–,> 100,–,> 100,–,> 100,–,> 100,–,> 100,–,5.81,–,19.4,–,> 35.1,> 86.3,–
Cc1ccc(S(=O)(=O)OC2CCN(C)CC2)cc1,–,> 100,–,48.6,–,> 100,–,–,–,> 100,–,> 100,–,–,–,44.6,> 100,–
O=C[C@@H](CO)O[C@H](C=O)c1c[nH]c(=O)[nH]c1=O,–,258,–,606,–,508,–,552,–,1020,–,309,–,338,–,309,389,–
CCOC(=O)c1c2c(c(O)c3ccccc3c(O)n(Cc3ccc(OC)cc3)c1C)C(=O)C=CC2=O,> 100,> 100,> 100,> 100,> 100,> 100,65.3,> 100,> 100,> 100,68.9,> 100,> 100,> 100,> 100,> 100,> 100,> 100
COc1cc(C(=O)/C=C/c2c(C)n([O-])c3ccc(C)cc3[n+]2=O)cc(OC)c1OC,21.3,47.8,2.23,5.81,14.7,36.9,30.6,> 100,15.7,82.1,3.11,7.1,17,31,14.8,28,> 100,10.6
Cc1ccc(NC(=O)c2cc3cc(N=Nc4ccc(Br)cc4)ccc3oc2=O)cc1,–,–,–,–,–,> 100,–,> 100,–,> 100,–,–,–,> 100,–,> 100,–,–
COc1cc(NS(C)(=O)=O)ccc1Nc1c2ccc([N+](=O)[O-])cc2nc2c(C)cccc12,0.107,6.37,0.117,7.68,–,1.59,0.338,4.16,0.0345,2.34,1.17,9.16,2.07,7.28,0.194,1.81,16.4,3.82
COc1ccccc1NC(=O)c1sc2nc3c(cc2c1N)C(=O)CCC3,2.37,7.17,> 100,> 100,3.06,> 100,4.87,> 100,2.11,> 100,25.3,> 100,> 100,> 100,1.62,> 100,> 100,2.91
COc1ccc(OC)c(/C=N/NC(=O)Cc2csc3nc(-c4ccc(Br)cc4)cn23)c1,13.2,30.3,41.2,> 100,> 100,> 100,–,–,11.6,38.7,15.9,59,10,34.9,8.89,42.5,41.2,16.4
CCCCC[C@H](O)/C=C/[C@@H]1[C@@H](C/C=C\CCCC(=O)O)[C@@H](O)C[C@H]1O,–,–,> 100,> 100,> 100,> 100,> 100,> 100,> 100,> 100,> 100,> 100,> 100,> 100,> 100,> 100,> 100,> 100
CC(C)/C=C1\CCC(CN2CCCC2)C1=O (stereo not drawn),–,> 100,–,–,–,> 79.7,–,49.6,–,20.1,–,31.8,–,34.2,–,33.2,–,–
COc1ccc(C2CC(=O)c3c(O)cc(O)cc3O2)cc1O (stereo not drawn),–,> 100,–,–,–,> 100,–,> 100,–,> 100,–,> 100,–,> 100,–,> 100,–,–
O=C1[C@@H]2C(c3ccccc3Br)=NO[C@@H]2C(=O)N1c1ccc(Cc2ccc(N3C(=O)[C@H]4C(c5ccccc5Br)=NO[C@H]4C3=O)cc2)cc1,–,> 100,–,–,–,> 100,–,> 100,–,> 100,–,> 100,–,> 100,–,> 100,–,–
CS/C(=N\C(=S)N(C)C)N(c1ccccc1)c1nc(=[N+](C)C)ss1,–,52.9,–,–,–,25.7,–,–,–,22.3,–,22.7,–,28.9,–,–,–,–
Cc1ccccc1NC(=O)C(=O)C(C#N)c1ccc(Cl)cc1 (stereo not drawn),–,> 100,–,–,–,56,–,> 100,–,> 100,–,> 100,–,75.9,–,> 100,–,–
O=C(Nc1ccc(Cl)c(Cl)c1)c1cccc(NC2=C(Cl)C(=O)N(Cc3ccccc3)C2=O)c1,> 100,> 100,61.2,> 100,30.3,> 100,35.5,> 100,42.9,> 100,24.6,> 100,–,–,> 100,> 100,> 100,26.4
O=C(O)C/C(=C\c1ccco1)C(=O)O,–,> 100,–,> 100,–,–,–,> 100,–,> 100,–,> 100,–,–,–,> 100,> 100,–
CCN(CC)CCOCC[C@H]1CC[C@H]2[C@@H]3[C@H](C)Cc4cc(OS(N)(=O)=O)ccc4[C@H]3CC[C@]12C,1.43,2.88,0.277,2.94,1.23,2.56,–,–,1.8,5.58,1.21,2.46,1.63,3.23,1.04,2.23,3.03,1.5
COc1cc2c(cc1O)CC[C@@H]1[C@@H]2CC[C@]2(C)[C@@H](NCCN(C)C)CC[C@@H]12,0.194,0.717,–,–,0.324,0.823,0.698,1.59,0.3,0.827,0.123,0.475,0.22,0.716,0.0694,0.166,0.391,0.0979
Nc1ccc2c(c1)C(=O)C(=O)c1c-2nc2ccccn12,–,–,1.76,4.13,0.561,3.12,1.72,3.75,1.62,3.54,1.26,3.07,2.22,4.09,0.178,0.329,4.96,1.75
Cc1ccc(S(=O)(=O)N[C@H](C(=O)O)c2ccccc2)cc1,–,–,–,–,–,> 100,–,> 100,–,> 100,–,> 100,–,> 100,–,> 100,–,–

Structure (SMILES),GI50 [1] [µM],TGI [1] [µM],GI50 [2] [µM],TGI [2] [µM],GI50 [3] [µM],TGI [3] [µM],GI50 [4] [µM],TGI [4] [µM],GI50 [5] [µM],TGI [5] [µM],GI50 [6] [µM],TGI [6] [µM],GI50 [7] [µM],TGI [7] [µM],GI50 [8] [µM],TGI [8] [µM],TGI [9] [µM],GI50 [9] [µM]
CCOC(=O)Nc1cc2nnc(-c3ccccc3)nc2c(N)n1,–,37.6,–,–,–,29.8,–,71.8,–,35.1,–,48.8,–,> 100,–,35.7,–,–
O=C(O)CCNc1ccccc1C(=O)O,–,> 100,–,> 100,–,> 100,–,> 100,–,> 100,–,> 100,–,–,–,> 100,> 100,–
CCOc1ccccc1NC(=O)CC1C(=O)Nc2ccccc2S1=O (stereo not drawn),–,–,–,–,–,> 100,–,> 100,–,> 100,–,> 100,–,> 100,–,> 100,–,–
CC1CC(C2=CC=CCS2)=Nc2ccccc2S1 (stereo not drawn),–,> 100,–,–,–,> 100,–,–,–,> 100,–,> 100,–,> 100,–,> 100,–,–
CN1N=CSC12C(=O)N(c1ccc(Cl)cc1)C(=O)N2c1ccc(Cl)cc1 (stereo not drawn),–,15.5,–,–,–,20.4,–,8.66,–,> 100,–,4.54,–,37.7,–,15.1,–,–
COc1cc(C2c3[nH]c4ccccc4c3C[C@H]3COC(=O)N23)cc(OC)c1OC (stereo partly drawn),< 0.01,–,–,–,< 0.01,–,–,0.902,0.0233,> 100,< 0.01,–,< 0.01,–,< 0.01,–,–,–
COc1ccccc1/C=C(\C#N)c1ccccc1,–,> 100,–,–,–,74.1,–,> 100,–,> 100,–,51.2,–,> 100,–,40.9,–,–
O=C(Nc1ccccc1-c1n[nH]c(=S)[nH]c1=O)C(F)(F)F,–,> 100,–,–,–,> 100,–,> 100,–,> 100,–,> 100,–,> 100,–,> 100,–,–
N#Cc1ccccc1NC(=O)/C(=N\N)C(C(=O)c1ccncc1)C1OC(=O)c2ccccc21 (stereo not drawn),–,> 100,–,–,–,> 100,–,> 100,–,> 100,–,> 100,–,> 100,–,> 100,–,–
O=C(Nc1ccc(Cl)cc1Cl)C1C(=O)N(c2ccc(Cl)cc2Cl)C(=O)/C1=N\Nc1ccc([N+](=O)[O-])cc1[N+](=O)[O-] (stereo not drawn),–,> 100,–,–,–,> 100,–,> 100,–,> 100,–,> 100,–,> 100,–,> 100,–,–
CC(NS(=O)(=O)c1ccc([N+](=O)[O-])cc1)C(=O)O (stereo not drawn),–,–,–,–,–,> 100,–,> 100,–,> 100,–,> 100,–,> 100,–,> 100,–,–
COC(=O)C1=C(c2ccc(OC)c(OC)c2)OC(c2ccc(OC)c(OC)c2)C1 (stereo not drawn),–,> 100,–,–,–,> 100,–,> 100,–,> 100,–,> 100,–,> 100,–,34.3,–,–
COc1cc(/C=C/c2ccncc2)cc(OC)c1OC,–,> 100,–,–,–,> 100,–,> 100,–,> 100,–,> 100,–,–,–,> 100,–,–
CC(C)(C)NNC(=O)/C(=C/c1ccc([N+](=O)[O-])cc1)NC(=O)c1ccccc1,–,> 100,–,–,–,> 100,–,96.5,–,> 100,–,> 100,–,> 100,–,> 100,–,–
C/C(CN1C(=O)c2ccccc2C1=O)=N\NS(=O)(=O)c1ccc(C)cc1,–,> 100,–,–,–,> 100,–,> 100,–,> 100,–,> 100,–,> 100,–,> 100,–,–
N=C(N)c1ccc(OCc2cccc(COc3ccc(C(=N)N)cc3)c2)cc1,–,–,26.9,> 100,4.27,20,7.2,23.1,19.3,> 100,–,–,11.4,33.2,1.96,4.28,15.9,4.09
C[N+](C)(C)CC1CCCC/C1=N\OC(=O)c1ccccc1 (stereo not drawn),–,> 100,–,–,–,> 100,–,–,–,> 100,–,> 100,–,> 100,–,> 100,–,–
CN1C(=O)CC(c2cccc(C3CC(=O)N(C)C3=O)n2)C1=O (stereo not drawn),–,> 100,–,–,–,> 100,–,> 100,–,> 100,–,> 100,–,> 100,–,> 100,–,–
O=C(Nc1c(O)[nH]c(=S)[nH]c1=O)c1ccccc1F,–,> 100,–,–,–,> 100,–,> 100,–,> 100,–,> 100,–,–,–,> 100,–,–
NC1=NC(=O)/C(=C/c2ccccc2[N+](=O)[O-])C(N)=N1,–,> 100,–,–,–,> 100,–,> 100,–,> 100,–,> 100,–,> 100,–,> 100,–,–
CC1CC[C@]2(C(=O)O)CCC3(COC(=O)/C=C\c4ccc(O)cc4)C(=CCC4[C@@]5(C)CC[C@H](O)C(C)(C)C5CC[C@]43C)[C@@H]2[C@H]1C (stereo partly drawn),–,–,–,–,–,35.5,–,39.5,–,26.3,–,37.1,–,33,–,40.7,–,–
